System: HaCat cells
Assay: Proliferation of HaCat cells assessed by flowcytometry and Trypan-Blue
Assay type: cell-based, human
Conditions: for Increased Proliferation (%): vs baseline
Protocol: HaCat cells were used for these experiments. HaCat cells are an immortalized human keratinocyte cell line (Boukamp et al., J Cell Biol 106:761-771, 1988), which is suitable for experimental keratinocyte research. HaCat cells were cultured in medium (DMEM, +10% FCS and PEST). Both types of cell cultures were treated with synthetic, bioactive LL-37 (lot YS 5253). […] Cells were harvested at different time-points (24 h, 48 h, 72 h and 96 h) and counted by flowcytometry (Becton-Dickinson) and stained by Trypan-Blue to evaluate viability. […] Proliferation and viability were also ascertained by measuring mitochondrial activity (WST-1, Roche, Cook et al. Anal Biochem 179:1-7, 1989).

[1] = LL-37 25 μg/ml, 10% serum, 96 h
[2] = LL-37 50 μg/ml, 10% serum, 96 h
[3] = LL-37 100 μg/ml, 2% serum, 96 h
[4] = LL-37 100 μg/ml, 10% serum, 96 h
[5] = LL-37 100 μg/ml, no lipid, 2% serum, 72 h
[6] = LL-37 100 μg/ml, no lipid, 10% serum, 72 h
[7] = LL-37 100 μg/ml, with lipid 0.2%, 2% serum, 72 h
[8] = LL-37 100 μg/ml, with lipid 0.2%, 10% serum, 72 h

LLGDFFRKSKEKIGKEFKRIVQRIKDFLRNLVPRTES [LL-37]
Number of Cells (Mean) (LL-37 25 μg/ml, 2% serum, 96 h): 32130
Trypan Blue + (%) (LL-37 25 μg/ml, 2% serum, 96 h): <1%
Increased Proliferation (%) (LL-37 25 μg/ml, 2% serum, 96 h): 0%
Number of Cells (Mean) [1]: 36470
Trypan Blue + (%) [1]: <1%
Increased Proliferation (%) [1]: 13%
Number of Cells (Mean) (LL-37 50 μg/ml, 2% serum, 96 h): 53620
Trypan Blue + (%) (LL-37 50 μg/ml, 2% serum, 96 h): 30-50%
Increased Proliferation (%) (LL-37 50 μg/ml, 2% serum, 96 h): Cytotoxic effect
Number of Cells (Mean) [2]: 40950
Trypan Blue + (%) [2]: <1%
Increased Proliferation (%) [2]: 27%
Number of Cells (Mean) [3]: 15120
Trypan Blue + (%) [3]: 100%
Increased Proliferation (%) [3]: Cytotoxic effect
cytotoxic effect when lipid was added (in words) (LL-37 100 μg/ml, 2% serum, lipid added): completely abolished
Number of Cells (Mean) [4]: 66430
Trypan Blue + (%) [4]: <1%
Increased Proliferation (%) [4]: 100%
Trypan Blue staining (in words) (LL-37 100 μg/ml, medium containing 2% FCS): all of the keratinocytes became positive with Trypan Blue staining
Number of Cells (Mean) [5]: 150500
Trypan Blue + (%) [5]: 100%
Increased Proliferation (%) [5]: Cytotoxic effect
Number of Cells (Mean) [6]: 88853
Trypan Blue + (%) [6]: <1%
Increased Proliferation (%) [6]: 61%
Number of Cells (Mean) [7]: 87360
Trypan Blue + (%) [7]: <1%
Increased Proliferation (%) [7]: 58%
Number of Cells (Mean) [8]: 91980
Trypan Blue + (%) [8]: <1%
Increased Proliferation (%) [8]: 66%
proliferation of HaCat cells (in words) (LL-37 25-100 μg/ml, media with 10% FCS): increases proliferation in a concentration-dependent manner

Source: patent US8936807B2, “Use of the cathelicidin LL-37 and derivatives thereof for wound healing” (Lipopeptide AB, priority 2003, dated 2015)
